Laboratory results reported in US9976141B2, “Compositions and methods for inhibiting gene expression of Hif2alpha” (Arrowhead Madison Inc., priority 2015, dated 2018).
Where “and” joins values, the source holds several entries; their conditions need not be identical. Identical values can stand only once.

Test system: human (tumor) Hif2α (EPAS1) mRNA
Test: Hif2α knockdown in orthotopic RCC tumor bearing mice, single injection of RNAi trigger-delivery polymer conjugate, RT-qPCR (Table 7)
Assay type: in vivo
Settings: single tail vein injection, relative to isotonic glucose
How it was run: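 Female athymic nude mice carried orthotopic A498-SEAP ccRCC kidney tumours, used 5–6 weeks after implantation. They received one tail-vein injection of RGD-targeted Hif2α RNAi trigger–polymer conjugate or isotonic glucose. Tumour Hif2α mRNA was measured by TaqMan RT-qPCR normalised to CycA (ΔΔCT) and expressed relative to glucose-treated mice.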

[1] = RNAi trigger 75 μg, polymer 064 187.5 μg
[2] = RNAi trigger 50 μg, polymer 064 125 μg
[3] = RNAi trigger 100 μg, polymer 100A 250 μg

In the case of “AD01294 (antisense TUUCAUGAAAUCGUUACGUCGGCUGU; sense UAUAUCGACGUAACGAUUUCAUGAAA; Hif2alpha RNAi agent antisense strand; modified_base 25 modified base = “2′-hydroxy corresponding nucleoside”; modified_base 2,4,6,8,10,14,16,18,20 /mod_base = “2′-deoxy-2′-fluoro corresponding nucleoside”; modified_base 3,5,7,9,11,12,13,15,17,19,21,22,23,24,26 /mod_base = “2′-O-methyl corresponding nucleoside”; modified_base 2,3,23,24 /mod_base = “5′-phosphorothioate corresponding nucleotide”; Hif2alpha RNAi agent sense strand; modified_base 2,4 modified base = “2′-hydroxy corresponding nucleoside”; modified_base 6,8,10,12,14,15,16,18,20,22,24,26 /mod_base = “2′-deoxy-2′-fluoro correspondin)”, the “Relative Expression day 4 (Hif2α mRNA in kidney tumor)” value (RNAi trigger 80 μg, polymer 126 400 μg) was 0.17.
“AD02693 (antisense UUUCAUGAAAUCGUUACGUUG; sense ACGUAACGAUUUCAUGAAAT; Hif2alpha RNAi agent antisense strand; modified_base 2,4,6,8,10,14,16,18 /mod_base = “2′-deoxy-2′-fluoro corresponding nucleoside”; modified_base 1,3,5,7,9,11,12,13,15,17,19,20,21 /mod_base = “2′-O-methyl corresponding nucleoside”; modified_base 2,3,20,21 /mod_base = “5′-phosphorothioate corresponding nucleotide”; Hif2alpha RNAi agent sense strand; modified_base 5,7,9,13,15,17 /mod_base = “2′-deoxy-2′-fluoro corresponding nucleoside”; modified_base 1,2,3,4,6,8,10,11,12,14,16,18,19 /mod_base = “2′-O-methyl corresponding nucleoside”; modified_base 20 /mod_base = “3′-3′-linked nucleotide”; modi)” was tested, and the “Relative Expression day 4 (Hif2α mRNA in kidney tumor)” value [1] was 0.122.
For “AD03187 (antisense UGUAAAACAAUUGUGUACUUU; sense AGUACACAAUUGUUUUACAT; Hif2alpha RNAi agent antisense strand; modified_base 2,4,6,8,10,14,16,18 /mod_base = “2′-deoxy-2′-fluoro corresponding nucleoside”; modified_base 1,3,5,7,9,11,12,13,15,17,19,20,21 /mod_base = “2′-O-methyl corresponding nucleoside”; modified_base 2,3,20,21 /mod_base = “5′-phosphorothioate corresponding nucleotide”; Hif2alpha RNAi agent sense strand; modified_base 3,5,7,8,9,11,13,17 /mod_base = “2′-deoxy-2′-fluoro corresponding nucleoside”; modified_base 1,2,4,6,10,12,14,15,16,18,19 /mod_base = “2′-O-methyl corresponding nucleoside”; modified_base 20 /mod_base = “3′-3′-linked nucleotide”; modi)”, the “Relative Expression day 4 (Hif2α mRNA in kidney tumor)” value [2] was 1.000.
For “AD01655 (antisense TUUCAUGAAAUCGUUACGUTT; sense ACGUAACGAUUUCAUGAAAT; Hif2alpha RNAi agent antisense strand; modified_base 2,4,6,8,10,13,14,16,18 /mod_base = “2′-deoxy-2′-fluoro corresponding nucleoside”; modified_base 3,5,7,9,11,12,15,17,19 /mod_base = “2′-O-methyl corresponding nucleoside”; modified_base 2,21 /mod_base = “5′-phosphorothioate corresponding nucleotide”; Hif2alpha RNAi agent sense strand; modified_base 1,3,5,8,9,11,13,15,17,19 /mod_base = “2′-deoxy-2′-fluoro corresponding nucleoside”; modified_base 2,4,6,7,10,12,14,16,18 /mod_base = “2′-O-methyl corresponding nucleoside”; modified_base 20 /mod_base = “3′-3′-linked nucleotide”; modified_base 1 /)”, the “Relative Expression day 4 (Hif2α mRNA in kidney tumor)” value [3] was 0.234.
With “AD02858 (antisense UUUCAUGAAAUCGUUACGUUG; sense ACGUAACGAUUUCAUGAAAT; Hif2alpha RNAi agent antisense strand; modified_base 2,3,4,8,10,14 /mod_base = “2′-deoxy-2′-fluoro corresponding nucleoside”; modified_base 1,5,6,7,9,11,12,13,15,16,17,18,19,20,21 /mod_base = “2′-O-methyl corresponding nucleoside”; modified_base 2,3,20,21 /mod_base = “5′-phosphorothioate corresponding nucleotide”; Hif2alpha RNAi agent sense strand; modified_base 7,8,9 /mod_base = “2′-deoxy-2′-fluoro corresponding nucleoside”; modified_base 1,2,3,4,5,6,10,11,12,13,14,15,16,17,18,19 /mod_base = “2′-O-methyl corresponding nucleoside”; modified_base 20 /mod_base = “3′-3′-linked nucleotide”; modi)” the “Relative Expression day 4 (Hif2α mRNA in kidney tumor)” value [2] was 0.192.
In the case of “AD01654 (antisense TUUCAUGAAAUCGUUACGUTT; sense ACGUAACGAUUUCAUGAAA; Hif2alpha RNAi agent antisense strand; modified_base 2,4,6,8,10,13,14,16,18 /mod_base = “2′-deoxy-2′-fluoro corresponding nucleoside”; modified_base 3,5,7,9,11,12,15,17,19 /mod_base = “2′-O-methyl corresponding nucleoside”; modified_base 2,21 /mod_base = “5′-phosphorothioate corresponding nucleotide”; Hif2alpha RNAi agent sense strand; modified_base 1,3,5,8,9,11,13,15,17,19 /mod_base = “2′-deoxy-2′-fluoro corresponding nucleoside”; modified_base 2,4,6,7,10,12,14,16,18 /mod_base = “2′-O-methyl corresponding nucleoside”; modified_base 2 /mod_base = “5′-phosphorothioate corresponding nucleotide)”, the “Relative Expression day 4 (Hif2α mRNA in kidney tumor)” value [3] was 0.185.
“AD02695 (antisense UUUCAUGAAAUCGUUACGUUG; sense ACGUAACGAUUUCAUGAAAT; Hif2alpha RNAi agent antisense strand; modified_base 2,4,6,8,10,14,16,18 /mod_base = “2′-deoxy-2′-fluoro corresponding nucleoside”; modified_base 1,3,5,7,9,11,12,13,15,17,19,20,21 /mod_base = “2′-O-methyl corresponding nucleoside”; modified_base 2,3,20,21 /mod_base = “5′-phosphorothioate corresponding nucleotide”; Hif2alpha RNAi agent sense strand; modified_base 7,9,13 /mod_base = “2′-deoxy-2′-fluoro corresponding nucleoside”; modified_base 1,2,3,4,5,6,8,10,11,12,14,15,16,17,18,19 /mod_base = “2′-O-methyl corresponding nucleoside”; modified_base 20 /mod_base = “3′-3′-linked nucleotide”; modi)” was tested, and the “Relative Expression day 4 (Hif2α mRNA in kidney tumor)” value [2] was 0.123 and the “Relative Expression day 4 (Hif2α mRNA in kidney tumor)” value [1] was 0.101 and 0.155.
For “AD03257 (antisense UUUCAUGAAAUCGUUACGUUG; sense ACGUAACGAUUUCAUGAAAT; Hif2alpha RNAi agent antisense strand; modified_base 2,8,10,14 /mod_base = “2′-deoxy-2′-fluoro corresponding nucleoside”; modified_base 1,3,4,5,6,7,9,11,12,13,15,16,17,18,19,20,21 /mod_base = “2′-O-methyl corresponding nucleoside”; modified_base 2,3,20,21 /mod_base = “5′-phosphorothioate corresponding nucleotide”; Hif2alpha RNAi agent sense strand; modified_base 7,8,9 /mod_base = “2′-deoxy-2′-fluoro corresponding nucleoside”; modified_base 1,2,3,4,5,6,10,11,12,13,14,15,16,17,18,19 /mod_base = “2′-O-methyl corresponding nucleoside”; modified_base 20 /mod_base = “3′-3′-linked nucleotide”; modi)”, the “Relative Expression day 4 (Hif2α mRNA in kidney tumor)” value [2] was 0.203.
In the case of “AD01891 (antisense UGUAAAACAAUUGUGUACUTT; sense AGUACACAAUUGUUUUACAT; Hif2alpha RNAi agent antisense strand; modified_base 2,4,6,8,10,13,14,16,18 /mod_base = “2′-deoxy-2′-fluoro corresponding nucleoside”; modified_base 1,3,5,7,9,11,12,15,17,19 /mod_base = “2′-O-methyl corresponding nucleoside”; modified_base 2,3,21 /mod_base = “5′-phosphorothioate corresponding nucleotide”; Hif2alpha RNAi agent sense strand; modified_base 3,5,8,9,11,13,17 /mod_base = “2′-deoxy-2′-fluoro corresponding nucleoside”; modified_base 1,2,4,6,7,10,12,14,15,16,18,19 /mod_base = “2′-O-methyl corresponding nucleoside”; modified_base 20 /mod_base = “3′-3′-linked nucleotide”; modified_base)”, the “Relative Expression day 4 (Hif2α mRNA in kidney tumor)” value (RNAi trigger 100 μg, polymer 064 250 μg) was 0.189.
